Measurements taken from the supplement of paper PMC10307832.

Tests used:
Assay in all cases: relative viability (nuclei count vs DMSO), 5 days (fraction); higher = more cells survive
Vorinostat + Bortezomib = compound: O=C(CCCCCCC(=O)Nc1ccccc1)NO [Vorinostat] + CC(C)C[C@H](NC(=O)[C@H](Cc1ccccc1)NC(=O)c1cnccn1)B(O)O [Bortezomib] (partner 0.002 µM)
Procedure, shortened: (§1)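 Medians of duplicate plates are given as relative viability. That measure is the nuclei count in treated wells divided by the count in vehicle wells. Counts were taken on 4× images of lung cancer cell lines in 1536-well plates, 5 days after pin-tool dosing the day after seeding with one drug alone or a fixed anchor-drug dose plus five library-drug doses (not always all listed) in √10 steps.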

Vorinostat + Olaparib = compound: O=C(CCCCCCC(=O)Nc1ccccc1)NO [Vorinostat] + O=C(c1cc(Cc2n[nH]c(=O)c3ccccc23)ccc1F)N1CCN(C(=O)C2CC2)CC1 [Olaparib] (partner 8 µM)
Procedure, shortened: as §1

Vorinostat + Phenformin = compound: O=C(CCCCCCC(=O)Nc1ccccc1)NO [Vorinostat] + N=C(N)NC(=N)NCCc1ccccc1 [Phenformin] (partner 250 µM)
Procedure, shortened: as §1

Vorinostat + Alpelisib = compound: O=C(CCCCCCC(=O)Nc1ccccc1)NO [Vorinostat] + Cc1nc(NC(=O)N2CCC[C@H]2C(N)=O)sc1-c1ccnc(C(C)(C)C(F)(F)F)c1 [Alpelisib] (partner 2 µM)
Procedure, shortened: as §1

Vorinostat + Luminespib = compound: O=C(CCCCCCC(=O)Nc1ccccc1)NO [Vorinostat] + CCNC(=O)c1noc(-c2cc(C(C)C)c(O)cc2O)c1-c1ccc(CN2CCOCC2)cc1 [Luminespib] (partner 0.01 µM)
Procedure, shortened: as §1

| Cell Line | relative viability (Vorinostat + Bortezomib; first compound 0.253 µM) | relative viability (Vorinostat + Bortezomib; first compound 0.8 µM) | relative viability (Vorinostat + Bortezomib; first compound 2.53 µM) | relative viability (Vorinostat + Bortezomib; first compound 8 µM) | relative viability (Vorinostat + Olaparib; first compound 0.253 µM) | relative viability (Vorinostat + Olaparib; first compound 0.8 µM) | relative viability (Vorinostat + Olaparib; first compound 2.53 µM) | relative viability (Vorinostat + Olaparib; first compound 8 µM) | relative viability (Vorinostat + Phenformin; first compound 0.253 µM) | relative viability (Vorinostat + Phenformin; first compound 0.8 µM) | relative viability (Vorinostat + Phenformin; first compound 2.53 µM) | relative viability (Vorinostat + Phenformin; first compound 8 µM) | relative viability (Vorinostat + Alpelisib; first compound 0.253 µM) | relative viability (Vorinostat + Alpelisib; first compound 0.8 µM) | relative viability (Vorinostat + Alpelisib; first compound 2.53 µM) | relative viability (Vorinostat + Alpelisib; first compound 8 µM) | relative viability (Vorinostat + Luminespib; first compound 0.253 µM) | relative viability (Vorinostat + Luminespib; first compound 0.8 µM) | relative viability (Vorinostat + Luminespib; first compound 2.53 µM) | relative viability (Vorinostat + Luminespib; first compound 8 µM) |
| --- | --- | --- | --- | --- | --- | --- | --- | --- | --- | --- | --- | --- | --- | --- | --- | --- | --- | --- | --- | --- |
| HCC-366 | 1.09 | 0.872 | 0.0664 | 0.0198 | 0.249 | 0.116 | 0.0308 | 0.0193 | 0.689 | 0.605 | 0.338 | 0.0385 | 0.456 | 0.36 | 0.0363 | 0.0122 | – | – | – | – |
| ChaGo-K-1 | 0.954 | 0.932 | 0.467 | 0.282 | 0.46 | 0.34 | 0.219 | 0.141 | 0.551 | 0.538 | 0.45 | 0.183 | – | – | – | – | 0.82 | 0.804 | 0.417 | 0.165 |
| HCC-78 | 0.495 | 0.265 | 0.119 | 0.126 | 0.778 | 0.615 | 0.221 | 0.201 | 0.719 | 0.58 | 0.292 | 0.22 | 0.346 | 0.208 | 0.114 | 0.099 | – | – | – | – |
| NCI-H2170 | – | – | – | – | 0.632 | 0.554 | 0.146 | 0.0982 | 0.481 | 0.394 | 0.384 | 0.164 | 0.823 | 0.69 | 0.235 | 0.141 | 0.894 | 0.692 | 0.577 | 0.171 |
| NCI-H2342 | – | – | – | – | 0.467 | 0.496 | 0.308 | 0.269 | 0.561 | 0.653 | 0.573 | 0.375 | – | – | – | – | 0.817 | 0.589 | 0.499 | 0.391 |
